From ChEMBL document CHEMBL4028831, “Improvement of hERG-ROMK index of spirocyclic ROMK inhibitors through scaffold optimization and incorporation of novel pharmacophores” (Bioorg Med Chem Lett, 2017)
Activity calls are given as the source filed them. The rule behind the calls is not given here.

Experiments:
[1] = Half life in Wistar Han rat at 1 mg/kg, iv or 2 mg/kg, po; settings: in vivo
Rattus norvegicus [2] = assay: Antihypertensive activity in rat spontaneous hypertensive model assessed as induction of kaliuresis at 3 mg/kg, po qd measured after 3 days; assay type: functional, organism-based
[3] = biological target: Voltage-dependent L-type calcium channel subunit alpha-1C (Homo sapiens, UniProt Q13936); assay: Inhibition of Cav1.2 (unknown origin)
[4] = Half life in Beagle dog at 1 mg/kg, iv; assay type: ADME, organism-based, Canis lupus familiaris; settings: in vivo
Cytochrome P450 3A4 = Cytochrome P450 3A4 (Homo sapiens, UniProt P08684); assay: Time dependent inhibition of CYP3A4 (unknown origin) in presence of NADPH; assay type: ADME
Homo sapiens = species on record: Homo sapiens; assay: Unbound Cmax in human; assay type: ADME
Rattus norvegicus [5] = assay: Antihypertensive activity in rat spontaneous hypertensive model assessed as induction of diuresis at 3 mg/kg, po qd measured after 3 days; assay type: functional, organism-based
[6] = biological target: T1, ATP-sensitive inward rectifier potassium channel 1 (Rattus norvegicus, UniProt P35560); assay: Inhibition of rat ROMK expressed in HEK293 cells after 30 mins by FLIPR based thallium flux assay; assay type: cell-based
T1 sequence (P35560 whole entry): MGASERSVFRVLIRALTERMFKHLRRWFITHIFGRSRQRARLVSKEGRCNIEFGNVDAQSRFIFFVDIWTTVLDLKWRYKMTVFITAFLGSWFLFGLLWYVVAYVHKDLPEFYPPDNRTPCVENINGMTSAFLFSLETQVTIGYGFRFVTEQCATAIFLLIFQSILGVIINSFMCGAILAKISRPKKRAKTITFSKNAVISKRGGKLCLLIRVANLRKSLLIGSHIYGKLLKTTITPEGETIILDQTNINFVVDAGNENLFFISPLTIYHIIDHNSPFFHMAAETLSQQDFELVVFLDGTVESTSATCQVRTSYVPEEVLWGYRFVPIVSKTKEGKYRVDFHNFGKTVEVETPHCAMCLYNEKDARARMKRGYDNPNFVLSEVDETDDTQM

in vivo = settings: Wistar Han, rat, po, 2 mg/kg
[7] = Volume of distribution at steady state in Beagle dog at 1 mg/kg, iv; assay type: ADME, organism-based, Canis lupus familiaris; settings: in vivo, read-out: Vdss

Chain of Voltage-dependent L-type calcium channel subunit alpha-1C (Q13936 whole entry): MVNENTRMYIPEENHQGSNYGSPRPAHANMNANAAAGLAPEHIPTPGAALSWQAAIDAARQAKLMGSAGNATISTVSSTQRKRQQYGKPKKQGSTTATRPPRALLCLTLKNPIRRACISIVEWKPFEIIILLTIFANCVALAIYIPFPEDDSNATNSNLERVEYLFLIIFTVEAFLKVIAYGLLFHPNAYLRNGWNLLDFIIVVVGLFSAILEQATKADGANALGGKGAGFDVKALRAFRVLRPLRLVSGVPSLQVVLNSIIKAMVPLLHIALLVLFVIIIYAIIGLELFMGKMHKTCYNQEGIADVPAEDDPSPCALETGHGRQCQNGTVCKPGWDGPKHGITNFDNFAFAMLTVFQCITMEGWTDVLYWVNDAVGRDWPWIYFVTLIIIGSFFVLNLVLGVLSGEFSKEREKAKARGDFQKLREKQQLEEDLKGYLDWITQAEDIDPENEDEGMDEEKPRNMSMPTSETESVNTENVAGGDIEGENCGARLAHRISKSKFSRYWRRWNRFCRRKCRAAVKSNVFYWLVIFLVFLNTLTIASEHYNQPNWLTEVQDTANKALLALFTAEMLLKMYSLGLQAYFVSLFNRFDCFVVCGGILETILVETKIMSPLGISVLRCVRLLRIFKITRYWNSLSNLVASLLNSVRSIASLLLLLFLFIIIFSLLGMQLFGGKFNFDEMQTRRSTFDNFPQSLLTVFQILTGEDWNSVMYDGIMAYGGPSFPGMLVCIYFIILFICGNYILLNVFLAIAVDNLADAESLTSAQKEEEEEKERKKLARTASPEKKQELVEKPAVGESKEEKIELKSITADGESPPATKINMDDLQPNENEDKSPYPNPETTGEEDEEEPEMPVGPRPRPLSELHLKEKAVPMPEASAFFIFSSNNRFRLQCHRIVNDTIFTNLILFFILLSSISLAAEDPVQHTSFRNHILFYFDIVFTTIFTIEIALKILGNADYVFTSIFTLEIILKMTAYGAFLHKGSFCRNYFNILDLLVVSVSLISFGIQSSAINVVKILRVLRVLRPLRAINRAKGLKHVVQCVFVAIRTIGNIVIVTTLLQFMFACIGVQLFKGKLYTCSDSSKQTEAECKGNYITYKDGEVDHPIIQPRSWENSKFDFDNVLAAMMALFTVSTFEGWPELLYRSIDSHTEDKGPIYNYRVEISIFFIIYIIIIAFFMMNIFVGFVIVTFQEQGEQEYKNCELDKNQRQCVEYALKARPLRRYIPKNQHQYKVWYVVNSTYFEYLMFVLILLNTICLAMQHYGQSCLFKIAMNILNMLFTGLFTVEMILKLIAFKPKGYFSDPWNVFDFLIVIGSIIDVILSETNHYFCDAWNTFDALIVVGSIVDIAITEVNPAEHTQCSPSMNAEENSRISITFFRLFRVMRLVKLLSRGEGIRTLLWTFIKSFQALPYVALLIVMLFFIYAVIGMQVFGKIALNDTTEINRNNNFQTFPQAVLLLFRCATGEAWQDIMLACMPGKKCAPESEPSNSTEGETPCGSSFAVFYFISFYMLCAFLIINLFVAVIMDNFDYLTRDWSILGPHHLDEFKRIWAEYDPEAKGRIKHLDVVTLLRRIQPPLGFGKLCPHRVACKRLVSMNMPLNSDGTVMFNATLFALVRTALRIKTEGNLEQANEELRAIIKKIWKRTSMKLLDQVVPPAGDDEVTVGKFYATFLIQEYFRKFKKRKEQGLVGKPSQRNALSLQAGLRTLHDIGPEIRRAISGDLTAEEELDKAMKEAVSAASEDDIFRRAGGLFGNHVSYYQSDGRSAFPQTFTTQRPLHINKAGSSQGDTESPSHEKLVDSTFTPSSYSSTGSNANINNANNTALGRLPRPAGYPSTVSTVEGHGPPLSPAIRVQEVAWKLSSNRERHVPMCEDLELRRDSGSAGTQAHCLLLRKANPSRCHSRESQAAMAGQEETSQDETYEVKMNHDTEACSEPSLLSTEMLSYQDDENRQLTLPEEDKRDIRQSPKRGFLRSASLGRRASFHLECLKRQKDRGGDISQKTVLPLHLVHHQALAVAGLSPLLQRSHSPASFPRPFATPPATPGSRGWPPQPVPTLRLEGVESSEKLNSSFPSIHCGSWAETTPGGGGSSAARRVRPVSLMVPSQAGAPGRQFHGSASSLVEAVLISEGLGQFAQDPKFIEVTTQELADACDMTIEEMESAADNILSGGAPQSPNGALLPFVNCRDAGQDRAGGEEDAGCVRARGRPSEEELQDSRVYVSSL
Chain of Cytochrome P450 3A4 (P08684 whole entry): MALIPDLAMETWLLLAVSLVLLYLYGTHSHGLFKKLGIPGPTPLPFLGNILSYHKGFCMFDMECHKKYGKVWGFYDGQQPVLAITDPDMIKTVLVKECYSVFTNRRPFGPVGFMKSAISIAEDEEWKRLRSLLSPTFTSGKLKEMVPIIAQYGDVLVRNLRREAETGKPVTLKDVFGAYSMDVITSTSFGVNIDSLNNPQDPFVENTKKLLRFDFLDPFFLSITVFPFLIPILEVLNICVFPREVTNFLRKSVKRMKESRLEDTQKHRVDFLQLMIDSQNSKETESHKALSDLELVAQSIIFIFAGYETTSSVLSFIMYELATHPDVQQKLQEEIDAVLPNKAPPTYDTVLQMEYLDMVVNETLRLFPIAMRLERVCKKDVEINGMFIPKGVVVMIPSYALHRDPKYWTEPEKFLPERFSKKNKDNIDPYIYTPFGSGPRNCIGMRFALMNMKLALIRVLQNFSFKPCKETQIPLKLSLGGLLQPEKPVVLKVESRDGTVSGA

Cc1c([C@@H](O)CN2CCC3(CC2)CCN(c2ccc(=O)n(C)n2)C3=O)ccc2c1COC2=O
half-life [1]: 2.8 h | Activity (Rattus norvegicus [2]): inactive | IC50 [3]: > 30 µM | half-life [4]: 5.8 h | IC50 (Cytochrome P450 3A4): > 50 µM | fCmax (Homo sapiens): 0.12 µM | Activity (Rattus norvegicus [5]): Active | IC50 [6]: 0.038 µM | bioavailability (in vivo): 78% | Vd [7]: 5 L/kg
